Assays:
[1] = collision cross section (TIMS, N2 drift gas) of the primary ion; higher = larger gas-phase ion size
[2] = reversed-phase LC retention time (C18, 15 min MeOH gradient); higher = more hydrophobic / later elution
[3] = ionization mode: ESI-, ion species: [M-H]-
[4] = ionization mode: ESI+, ion species: [M+H]+
[5] = ionization mode: ESI+, ion species: [M]+

collision cross section [1, 3] | reversed-phase LC retention time [2, 3] | collision cross section [1, 4] | reversed-phase LC retention time [2, 4] | Compound | collision cross section [1, 5] | reversed-phase LC retention time [2, 5]
157.09 Å² | 8.24 min | 151.03 Å² | 10.8 min | CCN(CC)C(=O)c1cccc(C(=O)O)c1 [DEET carboxylic acid] | – | –
– | – | 142.86 Å² | 13 min | CCN(CC)C(=O)c1cccc(C)c1 [DEET] | – | –
– | – | 228.01 Å² | 20.1 min | CC(C)CCCCCCOC(=O)C1CCCCC1C(=O)OCCCCCCC(C)C (stereo unspecified) [DINCH] | – | –
157.58 Å² | 9.78 min | 155.18 Å² | 11.1 min | O=c1c(-c2ccc(O)cc2)coc2cc(O)ccc12 [Daidzein] | – | –
159.61 Å² | 14.9 min | – | – | CCCCCCCCCCOS(=O)(=O)O [Decylsulfate] | – | –
184.43 Å² | 16.5 min | – | – | CC(C)c1ccc2c(c1)CC[C@H]1[C@](C)(C(=O)O)CCC[C@]21C [Dehydroabietic acid] | – | –
203 Å² | 15.8 min | – | – | C[C@H](CCC(=O)O)[C@H]1CC[C@H]2[C@@H]3CC[C@@H]4C[C@H](O)CC[C@]4(C)[C@H]3C[C@H](O)[C@]12C [Deoxycholic acid] | – | –
– | – | 159.85 Å² | 14 min | CCNC(=O)C(C)Oc1cccc2ccccc12 (stereo unspecified) [Desethyl-napropamide] | – | –
– | – | 144.23 Å² | 12 min | CC(C)(C)Nc1nc(N)nc(Cl)n1 [Desethylterbutylazine] | – | –
– | – | 164.14 Å² | 12.9 min | CNCCCN1c2ccccc2CCc2ccccc21 [Desipramine] | – | –
– | – | 176.94 Å² | 11.7 min | Clc1ccc2c(c1)CCc1cccnc1C2=C1CCNCC1 [Desloratadine] | – | –
– | – | 200.7 Å² | 13.6 min | CC1(C)O[C@@H]2C[C@H]3[C@@H]4CCC5=CC(=O)C=C[C@]5(C)[C@H]4[C@@H](O)C[C@]3(C)[C@]2(C(=O)CO)O1 [Desonide] | – | –
– | – | 171.64 Å² | 14.8 min | CCCCC(CC)CNCC(CC)CCCC (stereo unspecified) [Di(2-ethylhexyl)amine] | – | –
– | – | 224 Å² | 19.6 min | CC(CCOC(=O)c1ccccc1C(=O)OCCC(C)CC(C)(C)C)CC(C)(C)C (stereo unspecified) [Di-isononyl phthalate] | – | –
– | – | 179.28 Å² | 4.56 min | CC(=O)Nc1c(I)c(NC(C)=O)c(I)c(C(=O)O)c1I [Diatrizoate] | – | –
– | – | 185.48 Å² | 18 min | CCCCOC(=O)CCCCCCCCC(=O)OCCCC [Dibutyl sebacate] | – | –
161.99 Å² | 13.3 min | 159.21 Å² | 15.3 min | O=C(O)Cc1ccccc1Nc1c(Cl)cccc1Cl [Diclofenac] | – | –

collision cross section [1, 3] | reversed-phase LC retention time [2, 3] | collision cross section [1, 4] | reversed-phase LC retention time [2, 4] | Compound | collision cross section [1, 5] | reversed-phase LC retention time [2, 5]
189.02 Å² | 14.2 min | 201.58 Å² | 14.2 min | O=C(CC(C(=O)OC1CCCCC1)S(=O)(=O)O)OC1CCCCC1 (stereo unspecified) [Dicyclohexyl sulfosuccinate] | – | –
163.68 Å² | 14.3 min | 160.65 Å² | 13.9 min | O=C(NC1CCCCC1)NC1CCCCC1 [Dicyclohexylurea] | – | –
– | – | 175.13 Å² | 12.6 min | C[C@]12CCC3=C4CCC(=O)C=C4CC[C@H]3[C@@H]1CC[C@@]2(O)CC#N [Dienogest] | – | –
175.03 Å² | 14.5 min | – | – | CC/C(=C(/CC)c1ccc(O)cc1)c1ccc(O)cc1 [Diethylstilbestrol] | – | –
– | – | 204.46 Å² | 18.6 min | CC(C)CCCCOC(=O)c1ccccc1C(=O)OCCCCC(C)C [Diisoheptyl phthalate] | – | –
– | – | 172.78 Å² | 17 min | CC(C)OC(=O)CCCCCCCCC(=O)OC(C)C [Diisopropyl sebacate] | – | –
– | – | 198.45 Å² | 12.1 min | COc1ccc([C@@H]2Sc3ccccc3N(CCN(C)C)C(=O)[C@@H]2OC(C)=O)cc1 [Diltiazem] | – | –
167.03 Å² | 9.95 min | 164.03 Å² | 10 min | COCCN(C(=O)CS(=O)(=O)O)c1c(C)cccc1C [Dimethachlor ESA] | – | –
168.76 Å² | 10.9 min | 166.05 Å² | 10.9 min | COCC(C)N(C(=O)CS(=O)(=O)O)c1c(C)csc1C (stereo unspecified) [Dimethenamid ESA] | – | –
161.26 Å² | 10.5 min | 155.28 Å² | 11.3 min | COCC(C)N(C(=O)C(=O)O)c1c(C)csc1C (stereo unspecified) [Dimethenamid OA] | – | –
– | – | 171.03 Å² | 10.4 min | CC(C1=C(CCN(C)C)Cc2ccccc21)c1ccccn1 (stereo unspecified) [Dimethindene] | – | –
162.37 Å² | 8.33 min | – | – | COC(=O)c1cc(C(=O)OC)cc(S(=O)(=O)O)c1 [Dimethyl-5-sulfoisophthalate] | – | –
– | – | 151.98 Å² | 6.95 min | Cc1c(N(C)C)c(=O)n(-c2ccccc2)n1C [Dimethylaminophenazone] | – | –
– | – | 147.68 Å² | 10.6 min | COc1cc2ccc(=O)oc2c(OC)c1OC [Dimethylfraxetin] | – | –
– | – | 178.04 Å² | 15.3 min | CNC(=O)/C(=N/OC)c1ccccc1COc1cc(C)ccc1C [Dimoxystrobin] | – | –
208.23 Å² | 17.1 min | 222.09 Å² | 17.1 min | CCCCC(CC)COC(=O)CC(C(=O)OCC(CC)CCCC)S(=O)(=O)O (stereo unspecified) [Dioctylsulfosuccinate] | – | –
– | – | 162.95 Å² | 11.6 min | CN(C)CCOC(c1ccccc1)c1ccccc1 [Diphenhydramine] | – | –

Continued, compound first:

Compound | collision cross section [1, 3] | reversed-phase LC retention time [2, 3] | collision cross section [1, 4] | reversed-phase LC retention time [2, 4] | collision cross section [1, 5] | reversed-phase LC retention time [2, 5]
O=S(=O)(O)NC1CCCCC1 [Cyclamate] | 138.05 Å² | 6.16 min | – | – | – | –
O=P1(N(CCCl)CCCl)NCCCO1 (stereo unspecified) [Cyclophosphamide] | – | – | 147.43 Å² | 10.5 min | – | –
CC(C1CC1)C(O)(Cn1cncn1)c1ccc(Cl)cc1 (stereo unspecified) [Cyproconazole_1] | – | – | 170.22 Å² | 14.4 min | – | –
CC(C1CC1)C(O)(Cn1cncn1)c1ccc(Cl)cc1 (stereo unspecified) [Cyproconazole_2] | – | – | 170.04 Å² | 14.6 min | – | –
CC(=O)[C@@]1(O)CC[C@H]2[C@@H]3C=C(Cl)C4=CC(=O)[C@@H]5C[C@@H]5[C@]4(C)[C@H]3CC[C@@]21C [Cyproterone] | 190.87 Å² | 14.9 min | 190.49 Å² | 14.6 min | – | –
Nc1nc(N)nc(NC2CC2)n1 [Cyromazine] | – | – | 134.76 Å² | 3.4 min | – | –
CCCCCCCCn1sc(Cl)c(Cl)c1=O [DCOIT] | – | – | 166.39 Å² | 16.9 min | – | –
CCS(=O)CCSP(=O)(OC)OC (stereo unspecified) [Demeton-S-methyl sulfoxide] | – | – | 142.73 Å² | 7.58 min | – | –
COc1ccc2c(c1)[C@]13CCCC[C@@H]1[C@H](C2)N(C)CC3 [Dextromethorphan] | – | – | 166.66 Å² | 11.4 min | – | –
CCCCOP(=O)(O)OCCCC [Di-n-butyl phosphate] | 151.01 Å² | 11.6 min | – | – | – | –
CCCCCCOC(=O)c1ccccc1C(=O)OCCCCCC [Di-n-hexyl phthalate] | – | – | 195.44 Å² | 18.2 min | – | –
CCCCCOC(=O)c1ccccc1C(=O)OCCCCC [Di-n-pentylphthalate] | – | – | 182.77 Å² | 17.4 min | – | –
CN1C(=O)CN=C(c2ccccc2)c2cc(Cl)ccc21 [Diazepam] | – | – | 165.95 Å² | 14.2 min | – | –
CCOP(=S)(OCC)Oc1cc(C)nc(C(C)C)n1 [Diazinon] | – | – | 172.11 Å² | 15.6 min | – | –
CCCCOC(=O)c1ccccc1C(=O)OCCCC [Dibutylphthalate] | – | – | 169.98 Å² | 16.4 min | – | –
Oc1ccc(Cl)cc1Cc1cc(Cl)ccc1O [Dichlorophen] | 155.04 Å² | 15.3 min | – | – | – | –

Compound | collision cross section [1, 3] | reversed-phase LC retention time [2, 3] | collision cross section [1, 4] | reversed-phase LC retention time [2, 4] | collision cross section [1, 5] | reversed-phase LC retention time [2, 5]
COP(=O)(OC)OC=C(Cl)Cl [Dichlorvos] | – | – | 139.26 Å² | 9.07 min | – | –
Oc1cc(Cl)ccc1Oc1ccc(Cl)cc1 [Diclosan] | 152.57 Å² | 16.2 min | – | – | – | –
O=C(OC1CCCCC1)c1ccccc1C(=O)OC1CCCCC1 [Dicyclohexylphthalate] | – | – | 187.61 Å² | 17.5 min | – | –
CCCCCCCCCC[N+](C)(C)CCCCCCCCCC [Didecyldimethylammonium] | – | – | – | – | 211.39 Å² | 17.3 min
CCN(CC)c1ccccc1 [Diethylphenylamine] | – | – | 129.02 Å² | 6.93 min | – | –
CC1COC(Cn2cncn2)(c2ccc(Oc3ccc(Cl)cc3)cc2Cl)O1 (stereo unspecified) [Difenoconazole] | – | – | 202.11 Å² | 16.1 min | – | –
O=C(NC(=O)c1c(F)cccc1F)Nc1ccc(Cl)cc1 [Diflubenzuron] | 167.93 Å² | 15.5 min | 163.34 Å² | 15.1 min | – | –
O=C(Nc1ccc(F)cc1F)c1cccnc1Oc1cccc(C(F)(F)F)c1 [Diflufenican] | 181.03 Å² | 16.7 min | 189.49 Å² | 16.2 min | – | –
COCCN(C(=O)CCl)c1c(C)cccc1C [Dimethachlor] | – | – | 152.09 Å² | 13.3 min | – | –
COCC(C)N(C(=O)CCl)c1c(C)csc1C (stereo unspecified) [Dimethenamid] | – | – | 155.6 Å² | 14 min | – | –
CNC(=O)CSP(=S)(OC)OC [Dimethoate] | – | – | 141.81 Å² | 9.08 min | – | –
CCCCCCCCCCCCCCCCCC[N+](C)(C)CCCCCCCCCCCCCCCCCC [Dimethyldioctadecylammonium] | – | – | – | – | 272.56 Å² | 21.1 min
CCC(C)c1cc([N+](=O)[O-])cc([N+](=O)[O-])c1O (stereo unspecified) [Dinoseb] | 149.61 Å² | 12.3 min | – | – | – | –
C/N=C(/NCC1CCOC1)N[N+](=O)[O-] (stereo unspecified) [Dinotefuran] | 146.7 Å² | 6.46 min | 141.96 Å² | 6.27 min | – | –
CC(C)(C)c1cc([N+](=O)[O-])cc([N+](=O)[O-])c1O [Dinoterb] | 149.2 Å² | 12.5 min | – | – | – | –

Source: the supplement of paper PMC12613149
